Assay results published in patent US20240115654A1, “INTRAVENOUS ADMINISTRATION OF ENGINEERED ANTIMICROBIAL AMPHIPHILIC PEPTIDES” (priority 2021, published 2024).
≈ marks a conversion by molar mass, not a printed value. Where “and” joins values, the source holds several entries; their conditions need not be identical. Equal values may be shown once. Read-outs that look alike come from different tables or passages of the source. Peptide text beside a SMILES is read from it.

How the values were obtained:
[1] = 1.0 mg/kg, 30 min IV infusion, individual monkeys
Method: Animals will be obtained from the Test Facility's colony of adult male cynomolgus monkeys (Macaca fascicularis) of Chinese origin. Animals will be weighed prior to dosing.
Animals will be fasted a minimum of 2 hours prior to procedures requiring the administration of ketamine anesthesia. The diet will also be supplemented with other nutrients by feeding items such as raisins or fresh fruits that are presented to the animal as part of an environmental enrichment program. Offering items known to cause diarrhea will be avoided.
Intravenous administration will be via 30 minute infusion into a temporary percutaneous catheter placed into a saphenous vein. […]
The peptide will be purified from plasma samples from each macaque using a cation exchange-based solid-phase extraction process. Prior to extraction, a known concentration of a mass-adjusted internal standard (IS) will be added to assess recovery and allow for quantitation. […] Compound plasma concentrations will be determined by comparing to and compensating with co-purified IS peak intensity and validated calibrated standard curves.
Toxicokinetic parameters will be calculated using non-compartmental methods as implemented in the Phoenix® WinNonlin® ver. […] Values below the lower limit of quantitation (BLQ) will be assigned a value of zero for the toxicokinetic calculations. […]

[2] = tested on: Enterococcus faecalis ATCC 29212 (VSE; QC); conditions: E. faecalis ATCC 29212; established CLSI QC range; cited from earlier work
[3] = tested on: Streptococcus pneumoniae ATCC 49619 (QC); conditions: S. pneumoniae ATCC 49619; established CLSI QC range; cited from earlier work
[4] = tested on: Pseudomonas aeruginosa ATCC 27853 (non-MDR; QC); conditions: P. aeruginosa ATCC 27853; established CLSI QC range; cited from earlier work
[5] = tested on: Staphylococcus aureus ATCC 29213 (MSSA; QC); conditions: S. aureus ATCC 29213; established CLSI QC range; cited from earlier work
[6] = tested on: Enterobacter spp. isolates (Enterobacter aerogenes and E. cloacae, n = 102); assay: organism not typed
Method: (§1) Comparator antibiotics were supplied by Micromyx, and stock solutions were prepared on the first day of testing using solvents recommended by CLSI (1). Stock solutions of all compounds were made at 40× the final testing concentration and stored at −80° C. prior to testing. Information regarding compound source, catalog and lot number, testing concentrations and drug diluent for the comparators and test agent are detailed below in Table 3.
(§2) The test organisms evaluated in this study consisted of clinical isolates from the Micromyx Repository and reference isolates from the American Type Culture Collection (ATCC; Manassas, VA). The clinical isolates were obtained from USA hospitals. Upon initial receipt at Micromyx, the organisms were sub-cultured onto an appropriate agar medium. Following incubation, colonies were harvested from these plates and cell suspensions prepared and frozen at −80° C. with a cryoprotectant. Prior to testing, the isolates were streaked from frozen vials onto Trypticase Soy Agar with 5% sheep blood (Becton Dickenson [BD]; Sparks, MD; Lot Nos. 7173618, 7166759, 7208688, 72144895, 7228505 and Remel Lenexa, KS Lot No. 212574). Plates were incubated at 35° C. overnight.
(§3) Mueller Hinton II broth (MHB II; BD; Lot Nos. 6258541 and 7143896) was used for MIC testing of aerobic organisms.
(§4) MIC values were determined using a broth microdilution procedure described by CLSI (1, 3). Automated liquid handlers (Multidrop 384, Labsystems, Helsinki, Finland; Biomek 2000 and Biomek FX, Beckman Coulter, Fullerton CA) were used to conduct serial dilutions and liquid transfers.
(§5) To prepare the drug mother plates, which would provide the serial drug dilutions for the replicate daughter plates, the wells of columns 2-12 of standard 96-well microdilution plates (Costar 3795) were filled with 150 μl of the designated diluent for each row of drug. The test articles and comparator compounds (300 μl at 40× the highest concentration to be tested) were dispensed into the appropriate wells in column 1. The Biomek 2000 was then used to make 2-fold serial dilutions in the mother plates from column 1 through column 11. The wells of Column 12 contained no drug and served as the organism growth control wells for the assay.
(§6) The daughter plates were loaded with 185 μL per well of MHB II using the Multidrop 384. The daughter plates were completed on the Biomek FX instrument which transferred 5 μL of drug solution from each well of a mother plate to the corresponding well of each daughter plate in a single step. A standardized inoculum of each test organism was prepared per CLSI methods (1). The inoculum for each organism was dispensed into sterile reservoirs divided by length (Beckman Coulter), and the Biomek 2000 was used to inoculate the plates. Daughter plates were placed on the Biomek 2000 work surface in reverse orientation so that inoculation took place from low to high drug concentration.
(§7) Plates were stacked 3-4 high, covered with a lid on the top plate, placed in plastic bags, and incubated at 35° C. for 16 to 20 hrs. Following incubation, the microplates were removed from the incubator and viewed from the bottom using a plate viewer. […] The MIC was read and recorded as the lowest concentration of drug that inhibited visible growth of the organism.
(§8) Clinical breakpoints to determine percent resistance within a given organism group were obtained from CLSI (3), with the exception of colistin for K. pneumoniae, Enterobacter spp., and E. coli, which are only available from EUCAST.

[7] = tested on: Escherichia coli ATCC 25922 (QC); conditions: E. coli ATCC 25922; established CLSI QC range; cited from earlier work
[8] = tested on: Escherichia coli isolates (n = 101); conditions: Escherichia coli (n = 101); CLSI breakpoints, colistin EUCAST
Method: as §1, §2, §3, §4, §5, §6, §7, §8

[9] = tested on: Klebsiella pneumoniae isolates (n = 101); conditions: Klebsiella pneumoniae (n = 101); CLSI breakpoints, colistin EUCAST
Method: as §1, §2, §3, §4, §5, §6, §7, §8

[10] = tested on: Pseudomonas aeruginosa isolates (n = 109); conditions: Pseudomonas aeruginosa (n = 109), CLSI breakpoints
Method: as §1, §2, §3, §4, §5, §6, §7, §8

[11] = tested on: Acinetobacter spp. isolates (n = 104); conditions: Acinetobacter spp. (n = 104); CLSI breakpoints
Method: as §1, §2, §3, §4, §5, §6, §7, §8

Structure (SMILES) | Dose Normalized Cmax [1] | MIC QC range (in parentheses under the MIC) [2] | MIC QC range (in parentheses under the MIC) [3] | MIC QC range (in parentheses under the MIC) [4] | MIC QC range (in parentheses under the MIC) [5] | MIC50 [6] | MIC90 [6] | % R (percent of isolates resistant) ([6]; Enterobacter spp. (n = 102), CLSI breakpoints, colistin EUCAST) | MIC ([6]; read-out: Mode (MIC)) | MIC QC range (in parentheses under the MIC) [7] | % R (percent of isolates resistant) [8] | % R (percent of isolates resistant) [9] | % R (percent of isolates resistant) [10] | % R (percent of isolates resistant) ([10]; listed as meropenem) | % R (percent of isolates resistant) [11]
C[C@@H](O)[C@H](NC(=O)[C@H](Cc1c[nH]cn1)NC(=O)[C@@H](NC(=O)[C@H](CCCCN)NC(=O)[C@H](CCCCN)NC(=O)[C@@H](NC(=O)[C@H](CCCCN)NC(=O)[C@@H](NC(=O)[C@H](Cc1c[nH]cn1)NC(=O)[C@@H](NC(=O)[C@H](CCCCN)NC(=O)[C@H](CCCCN)NC(=O)[C@@H](NC(=O)[C@H](CCCCN)NC(=O)[C@@H](NC(=O)[C@H](Cc1c[nH]cn1)NC(=O)[C@@H](NC(=O)[C@H](CCCCN)NC(=O)[C@@H](N)CCCCN)[C@@H](C)O)[C@@H](C)O)[C@@H](C)O)[C@@H](C)O)[C@@H](C)O)[C@@H](C)O)[C@@H](C)O)C(=O)N[C@@H](CCCCN)C(=O)O [SEQ ID NO: 13] (H-KKTHTKTKKTHTKTKKTHTK-OH) | 5000 and 7000 and 6000 |  |  |  |  |  |  |  |  |  |  |  |  |  | 
C[C@@H](O)[C@H]1C(=O)N2C(C(=O)O)=C(S[C@@H]3CN[C@H](C(=O)N(C)C)C3)[C@H](C)[C@H]12 [Meropenem] |  | (2-8) μg/mL | (0.03-0.25) μg/mL | (0.12-1) μg/mL | (0.03-0.12) μg/mL | 0.03 µg/mL (≈ 0.0782 µM) | 0.12 µg/mL (≈ 0.313 µM) | 3.9% | 0.03 µg/mL (≈ 0.0782 µM) | (0.008-0.06) μg/mL | 1% | 50.5% | 20.2% | 20% | 65.4%
